Measurements from patent EP0417803A1, “[N-(gamma-glutamyl)glycyl] alanine derivatives” (SANDOZ LTD., priority 1989, dated 1991).

Assay: Induction of endotoxin shock in the mouse
Settings: in vivo, read-out: LD₅₀
Excerpt: The test method is essentially as described in GB 2'179'945 A and DE 37'30'905.

Work on CCCCCCC(=O)N[C@H](CCC(=O)N[C@H](/C=C/CC(O)C(=O)OCCCC)C(=O)N[C@@H](C)C(=O)OCC)C(=O)OCc1ccccc1 (stereo partly drawn) [Example 1, {N-[N′-Heptanoyl-(R)-γ-glutamyl-(α-benzylester)]-(R)-α-[2-(RS)-hydroxypent-4-enoic acid butyl ester-5-yl]glycyl]-(S)-alanine ethyl ester] yielded an LD50 of 12 mg/kg.
